Reference: US10174016B2 (BAYER AKTIENGESELLSCHAFT, priority 2014, dated 2019)
Like-named read-outs stand apart in the source and are kept apart here.

Experiments:
[1] = In vitro metabolic stability in liver microsomes (calculation of CL and Fmax); type: in vitro ADME, human; conditions: 1 μM, 0.5 mg/mL protein, maximal oral bioavailability calculated from half-life
Description: In Vitro Metabolic Stability Assays Determination of in vitro metabolic stability in microsomes (including calculation of hepatic in vivo blood clearance (CL) and of maximal oral bioavailability (Fmax))
The metabolic assay was started shortly afterwards by adding the test compound to the incubation at a final volume of 1 mL. Organic solvent in the incubations was limited to […] dimethylsulfoxide (DMSO) and ≤1% acetonitrile. […] Samples were frozen at −20° C. overnight, subsequently centrifuged for 15 minutes at 3000 rpm and the supernatant was analyzed with an Agilent 1200 HPLC-system with LCMS/MS detection.
The half-life of a test compound was determined from the concentration-time plot. From the half-life (kel: slope of concentration-time plot; half-life=ln 2/kel) the intrinsic clearances were calculated. Together with the additional parameters liver blood flow, specific liver weight and microsomal protein content the hepatic in vivo blood clearance (CL) and the maximal oral bioavailability (Fmax) were calculated for the different species.
(§1) Metabolic instability is often the main clearance mechanism of xenobiotica leading to a high CL and low bioavailability which may eventually result in a short half-life and a low exposure after oral administration. Thus, reducing the susceptibility of metabolic degradation usually leads to a more favourable pharmacokinetic profile. When using liver microsomes as incubation matrix main phase I metabolic reactions, typically oxidoreductive reactions by cytochrome P450 enzymes and flavin mono-oxygenases (FMO) and hydrolytic reactions by esterases/amidases/epoxidhydrolases, are described. When the incubation of the test compound is performed in a hepatocyte matrix all potential hepatic metabolic processes (phase I and phase II) are covered.

rat hepatocytes = assay: In vitro metabolic stability in rat hepatocytes; type: in vitro ADME, Han Wistar rats; conditions: 1 μM, 1.0×10^6 cells/mL, maximal oral bioavailability calculated from half-life
Description: Determination of in vitro metabolic stability in rat hepatocytes (including calculation of hepatic in vivo blood clearance (CL))
Hepatocytes from Han Wistar rats were isolated via a 2-step perfusion method. After perfusion, the liver was carefully removed from the rat: the liver capsule was opened and the hepatocytes were gently shaken out into a Petri dish with ice-cold Williams' medium E (WME). The resulting cell suspension was filtered through sterile gaze in 50 mL falcon tubes and centrifuged at 50×g for 3 min at room temperature. The cell pellet was resuspended in 30 mL WME and centrifuged through a Percoll® gradient for 2 times at 100×g. The hepatocytes were washed again with WME and resuspended in medium containing 5% FCS. Cell viability was determined by trypan blue exclusion.
The test compound was added to a final concentration of 1 μM. […] Samples were frozen at −20° C. overnight, subsequently centrifuged for 15 minutes at 3000 rpm and the supernatant was analyzed with an Agilent 1200 HPLC-system with LCMS/MS detection.
The half-life of a test compound was determined from the concentration-time plot. From the half-life (kel: slope of concentration-time plot; half-life=ln 2/kel) the intrinsic clearances were calculated. Together with the additional parameters liver blood flow, amount of liver cells in vivo and in vitro.
as §1

[2] = system: CFA-induced mechanical hyperalgesia; assay: Rat CFA in vivo model (mechanical hyperalgesia, paw withdrawal threshold); design: species or system Male Sprague Dawley rats; conditions: dosed 24 hours after CFA injection
Description: Rat CFA In Vivo Model Male Sprague Dawley rats were used. Mechanical hyperalgesia was induced by injecting 25 μl of Complete Freund's Adjuvant (CFA) into the plantar surface of one hind paw. Mechanical hyperalgesia was measured using the Pressure Application Measurement apparatus (Ugo Basile, Gemonio, Italy). Briefly, a linearly increasing pressure was applied to an area of ˜50 mm2 of the plantar side of the hind paw until a behavioural response (paw withdrawal) was observed or until the pressure reached 1000 gf. The pressure at which the behavioural response occurred was recorded as the “Paw Withdrawal Threshold” (PWT). Both CFA-injected and contralateral PWTs were determined for each rat, in each treatment group and at each time point of the studies. […] Compounds were dosed 24 hours after CFA injection. Data were expressed as the mean PWT for each treatment group and at each time point. Data were analysed by performing a repeated measures two way ANOVA (time×treatment). Planned comparison of means (each versus vehicle) was performed by using a Dunnett's post hoc test, provided that a main effect was detected. […] More preferred examples of the present invention show rat CFA in vivo efficacy in the ‘Paw withdrawal threshold 6 hours post drug’ measure when dosed at 3 mg/kg p.o.

[3] = system: taste sensation via the tongue; conditions: clinical PhII trials, attributed to blockade of P2X2/3 channels; cited from earlier work
[4] = Human liver cytosol stability assay; type: in vitro ADME; conditions: human liver cytosol 1 mg/mL, 1 or 10 μM, 37° C.
Description: Human Liver Cytosol Stability Assay
Method description: Human liver cytosol (pooled, >30 male and female donors) was incubated with individual test compounds in order to compare the extent of depletion of test compound and formation of the respective oxidised metabolite. […] An incubation volume of 1000 μL was used. The test compound was added from a stock solution in acetonitrile at 1 or 10 μM concentration in the incubation. Incubations were performed at 37° C. Reactions were stopped at 0 h and 4 h after incubation by addition of 100 μL acetonitrile to 250 μL of incubation mixture. Precipitated proteins were removed by centrifugation at approximately 3000 rpm. The supernatants were stored at approximately −20° C. until they were analysed. […]
Data analysis: The depletion of the test compound and formation of the corresponding metabolites were determined by decrease or increase of the corresponding peak area in the chromatogram after UV detection at approximately 300 nm 4 h after incubation compared to that at 0 h after incubation. […]

human P2X2/3 receptor = human P2X2/3 receptor (Homo sapiens (Human), UniProt P56373+Q9UBL9); assay: Intracellular calcium measurement (FLIPR, Fluo-4) of antagonist activity at human P2X2/3 receptors; type: cell-based; conditions: human P2X2/3, FLIPR calcium assay, agonist α,β-Me-ATP; read-out: hP2X2/3 IC50
Summary of the method: (§2)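 Antagonism quantified from peak calcium fluorescence (Fluo-4, FLIPR, 90 sec read) evoked by EC80 α,β-Me-ATP, after a 30 min, 37° C. compound pretreatment in 1% DMSO. Human P2X3- or P2X2/3-expressing cells used; triplicate means fitted for IC50, percent maximal inhibition and Hill coefficient.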

human P2X3 receptor = human P2X3 receptor (Homo sapiens (Human), UniProt P56373); assay: Intracellular calcium measurement (FLIPR, Fluo-4) of antagonist activity at human P2X3 receptors; type: cell-based
Summary of the method: as §2

[5] = Bidirectional Caco-2 cell permeability assay; type: in vitro ADME; conditions: human
Description: Bidirectional Caco-2 Cell Permeability Assay
Caco-2 cells (purchased from DSMZ Braunschweig, Germany) were seeded at a density of 4.5×10^4 cell per well on 24 well insert plates, 0.4 μm pore size, and grown for 15 days in Dulbecco's modified Eagle medium supplemented with 10% fetal bovine serum, 1% GlutaMAX (100×, purchased from GIBCO), 100 U/ml penicillin, 100 μg/ml streptomycin (purchased from GIBCO) and 1% non-essential amino acids (100×). Cells were maintained at 37° C. in a humidified 5% CO2 atmosphere. Medium was changed every 2-3 days. […] Test compounds were dissolved in DMSO and added to the donor chamber representing either the apical or basolateral compartment in a final concentration of 2 μM. Before and after 2 h incubation at 37° C. samples were taken from both compartments (donor and receiver chamber). Analysis of compound concentrations was done after precipitation with methanol. Analysis was performed by high-pressure liquid chromatography and a tandem mass spectrometric detector using an Agilent 1200 liquid chromatography system and an AB Sciex API4000 triple-quadrupole mass spectrometer applying the parameters, which were optimized to achieve maximum signal intensity of the corresponding test compound. Permeability (Papp) was calculated in the apical to basolateral (A→B) and basolateral to apical (B→A) directions. […] The efflux ratio basolateral (B) to apical (A) was calculated by dividing the Papp B-A by the Papp A-B.
The bidirectional Caco-2 cell permeability assay is a well-established method for predicting the in vivo absorption of drugs across the gut wall by measuring the rate of transport of a compound across the Caco-2 monolayer. Since differentiated Caco-2 cells express functional efflux transport proteins like P-gp, they are also used for identification of compounds with efflux liabilities. Intestinal efflux can decrease systemic plasma concentrations of an orally dosed compound by affecting intestinal absorption of a compound.

[6] = human P2X3, FLIPR calcium assay, agonist α,β-Me-ATP, read-out: hP2X3 IC50
[7] = read-out: human P2X3 receptor IC50

Sequence of human P2X3 receptor (P56373 whole entry): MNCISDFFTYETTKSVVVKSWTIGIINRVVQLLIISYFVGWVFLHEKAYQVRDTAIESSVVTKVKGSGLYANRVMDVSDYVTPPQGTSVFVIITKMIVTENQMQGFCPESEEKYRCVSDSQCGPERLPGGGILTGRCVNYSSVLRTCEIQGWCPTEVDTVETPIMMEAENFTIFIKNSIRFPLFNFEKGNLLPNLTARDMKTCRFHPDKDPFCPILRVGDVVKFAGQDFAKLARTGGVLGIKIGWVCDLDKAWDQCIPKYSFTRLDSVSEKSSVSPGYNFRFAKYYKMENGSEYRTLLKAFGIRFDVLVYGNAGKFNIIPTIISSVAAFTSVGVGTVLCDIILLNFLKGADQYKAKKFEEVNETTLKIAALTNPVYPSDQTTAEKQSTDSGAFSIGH
Sequence of human P2X2/3 receptor (P56373 whole entry): as above
Sequence of human P2X2/3 receptor (Q9UBL9 whole entry): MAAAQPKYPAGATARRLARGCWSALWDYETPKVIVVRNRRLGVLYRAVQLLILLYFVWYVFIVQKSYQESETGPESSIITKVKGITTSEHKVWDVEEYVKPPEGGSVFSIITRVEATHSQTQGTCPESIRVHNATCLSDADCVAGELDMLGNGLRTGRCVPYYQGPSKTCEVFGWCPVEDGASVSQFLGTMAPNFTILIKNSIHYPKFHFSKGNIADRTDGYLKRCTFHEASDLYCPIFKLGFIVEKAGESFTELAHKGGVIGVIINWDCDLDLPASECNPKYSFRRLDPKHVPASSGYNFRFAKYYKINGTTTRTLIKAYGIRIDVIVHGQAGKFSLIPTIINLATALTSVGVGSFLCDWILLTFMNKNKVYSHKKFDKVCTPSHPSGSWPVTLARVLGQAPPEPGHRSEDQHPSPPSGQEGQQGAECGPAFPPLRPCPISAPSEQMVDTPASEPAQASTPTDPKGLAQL

SMILES | Human liver microsome Fmax [1] [%] | Rat hepatocyte Fmax (rat hepatocytes) [%] | Paw withdrawal threshold 6 hour-post drug ([2]; 3 mg/kg p.o.) | IC50 (human P2X2/3 receptor) [nM] | IC50 (human P2X3 receptor; [6]) [nM] | further results
Cc1cnc(-c2cc(OC(C)C(C)O)cc(C(=O)N[C@H](C)c3ccc(C(F)(F)F)nn3)c2)s1 (single isomer, unassigned) [Example 183] | 74 | 43 | – | – | – | –
CC(O)C(C)Oc1cc(C(=O)N[C@H](C)c2cnc(C(F)(F)F)nc2)cc(-c2ncc(Cl)s2)c1 (single isomer, unassigned) [Example 185] | – | – | 630 ± 81 (*) gf | – | – | –
Cc1cnc(-c2cc(OC(C)C(C)O)cc(C(=O)N[C@H](C)c3cnc(C(F)(F)F)nc3)c2)s1 (single isomer, unassigned) [Example 339] | 94 | 52 | – | – | – | –
Cc1cnc(-c2cc(OC(C)C(C)O)cc(C(=O)N[C@H](C)c3cnc(C(F)(F)F)nc3)c2)s1 (single isomer, unassigned) [Example 340] | 90 | 64 | – | – | – | –
COc1cc(C(C)C)c(Oc2cnc(N)nc2N)cc1S(N)(=O)=O [AF-219] | – | – | – | – | – | effect on taste in treated subjects [3]: leads to taste disturbances
Cc1cnc(-c2cc(O[C@H]3CCOC3)cc(C(=O)N[C@H](C)c3cnc(C(F)(F)F)nc3)c2)s1 [Example 26, 3-(5-Methyl-1,3-thiazol-2-yl)-5-[(3S)-tetrahydrofuran-3-yloxy]-N-{(1R)-1-[2-(trifluoromethyl)pyrimidin-5-yl]ethyl}benzamide] | 67 | 56 | – | – | – | Test compound turnover after 4 h [4]: 12%
Cc1cnc(-c2cc(OC3COC3)cc(C(=O)N[C@H](C)c3cnc(C(F)(F)F)nc3)c2)s1 [Example 48, 3-(5-Methyl-1,3-thiazol-2-yl)-5-(oxetan-3-yloxy)-N-{(1R)-1-[2-(trifluoromethyl)pyrimidin-5-yl]ethyl}benzamide] | – | – | 817 ± 69 gf (****) | 451 | 14 | IC50 (human P2X3 receptor; [7]): 14 nM
Cc1cnc(-c2cc(OC[C@H]3CN(C)CCO3)cc(C(=O)N[C@H](C)c3cnc(C(F)(F)F)nc3)c2)s1 [Example 348, 3-{[(2R)-4-methylmorpholin-2-yl]methoxy}-5-(5-methyl-1,3-thiazol-2-yl)-N-{(1R)-1-[2-(trifluoromethyl)pyrimidin-5-yl]ethyl}benzamide] | – | – | 633 ± 59 gf (*) | 760 | 7 | Paw withdrawal threshold 6 hour-post drug ([2]; 0.3 mg/kg p.o.): 599 ± 47 gf (*); Paw withdrawal threshold 6 hour-post drug ([2]; 1 mg/kg p.o.): 601 ± 28 gf (**); IC50 (human P2X3 receptor; [7]): 7 nM
CCc1cnc(-c2cc(OC[C@H]3CN(C)CCO3)cc(C(=O)N[C@H](C)c3ccc(C(F)(F)F)nn3)c2)s1 [Example 419, 3-(5-ethyl-1,3-thiazol-2-yl)-5-{[(2R)-4-methylmorpholin-2-yl]methoxy}-N-{(1R)-1-[6-(trifluoromethyl)pyridazin-3-yl]ethyl}benzamide] | 74 | 51 | – | 1140 | 9 | efflux ratio at 2 h, 2 μM ([5]; Caco-2, pH 7.2, Papp B-A divided by Papp A-B): 1.7; Papp A→B at 2 h, 2 μM ([5]; Caco-2, apical to basolateral, 2 μM, 2 h, 37° C., pH 7.2): 10.4 ×10⁻⁶ cm/s; Papp B→A at 2 h, 2 μM ([5]; Caco-2, basolateral to apical, 2 μM, 2 h, 37° C., pH 7.2): 17.5 ×10⁻⁶ cm/s
